Read-outs that look alike come from different tables or passages of the source. Blank lines part the entries; values can stand above or below the molecule they belong to.
Columns and labels:
[1] = test system: CD56+ (NK cells) from human PBMCs; test: Flow cytometry binding to PBMCs, CD56+ (NK cell) population; assay type: cell-based; details: FIG. 2A
Method: (§1) The affinity of NKp46 dimeric bicyclic peptides conjugated to Alexa Fluor® 488 to primary healthy peripheral blood mononuclear cells (PBMCs) was evaluated using a flow cytometry assay.
(§2) On the day of the experiment, medium was prepared by supplementing RPMI-1640 (Gibco™ 11875-093; with L-glutamine) with 10% heat-inactivated fetal bovine serum (FBS; Corning® 35-011-CV), 10 mM HEPES (Gibco™ 15-630-080), and 1% Penicillin Streptomycin (Corning™ 30-002-Cl), herein referred to as working medium. Previously isolated human peripheral blood mononuclear cells (PBMCs), from whole blood, were quick thawed in a water bath and washed once at 500 rpm for 5 minutes in 10 mL of prewarmed working medium. […]
(§3) Preparation of samples for flow cytometry: Zombie Aqua™ Fixable Viability Dye (BioLegend® 423102) was prepared as a 1:1000 dilution in PBS and 100 μL of viability dye was added to each well and incubated in the dark at 4° C. for 30 minutes. […] Cells were resuspended in 200 μL of stain buffer and kept at 4° C. in the dark until read by BD FACSCelesta™ flow cytometer.
(§4) Flow cytometry results were analyzed in FlowJo™ software with a gating strategy to evaluate the lymphocyte population then exclude debris, gate on single and live cells only, and determining the geometric mean of the Alexa Fluor® 488 in the CD3+ and CD3−/CD56+ populations. […]

[2] = test system: CD56- CD3+ (T-cell population) from human PBMCs; test: Flow cytometry binding to PBMCs, CD56-/CD3+ (T-cell) population; assay type: cell-based; details: FIG. 2B
Method: as §1, §2, §3, §4

[3] = target: CD16a (V Variant) (Homo sapiens, UniProt P08637, F176V); test: FcγRIII (CD16a) SPR (Method A and/or Method B), V variant; assay type: binding
[4] = target: T1, CD16a/FCgRIIIa (F158 variant) (Homo sapiens, UniProt P08637); test: CD16a/FCgRIIIa HTRF assay (IgG competition on HEK293 cells); assay type: binding
T1 construct: host or cells: HEK293

[5] = test system: human CD16a V176 variant; test: IgG competition assay (AlphaScreen), V variant; assay type: binding; details: N-terminally biotinylated CD16a V176 10 nM, mouse IgG2a acceptor beads
[6] = target: human FcγRIII (CD16a) (Homo sapiens, UniProt P08637); test: FcγRIII (CD16a) SPR (Method A); assay type: binding
Method: SPR experiments were performed to determine ka (M^−1s^−1), kd (s^−1), KD (nM) values (where measurable) of various bicyclic peptides to immobilized human FcγRIII proteins.
For analysis of peptide binding, a Biacore 3000 or T200 instrument was used with a CM5 chip (GE Healthcare). Streptavidin was immobilized on the chip using standard amine-coupling chemistry at 25° C. with HBS-N (10 mM HEPES, 0.15 M NaCl, pH 7.4) as the running buffer. Briefly, the carboxymethyl dextran surface was activated with a 7 min injection of a 1:1 ratio of 0.4 M 1-ethyl-3-(3-dimethylaminopropyl) carbodiimide hydrochloride (EDC)/0.1 M N-hydroxy succinimide (NHS) at a flow rate of 10 μl/min. For capture of streptavidin, the protein was diluted to 0.2 mg/ml in 10 mM sodium acetate (pH 4.5) and captured by injecting 120 μl of onto the activated chip surface. Residual activated groups were blocked with a 7 min injection of 1 M ethanolamine (pH 8.5) and biotinylated FcγRIII captured to a level of 400-1,400 RU. Buffer was changed to PBS/0.05% Tween 20 and a dilution series of the peptides was prepared in this buffer with a final DMSO concentration of 0.5%. […] The SPR analysis was run at 25° C. at a flow rate of 50 μl/min with 60 seconds association and dissociation between 60 and 200 seconds. Data were corrected for DMSO excluded volume effects. […]

Molecule: BCY15663: AF488 NKp46 homodimer of BCY15452, C-term D-Lys(PYA), linker N-(amine-PEG2)-N-bis(PEG3-azide) (ACYLPDYLCGDEYCAK; not fully specified; D-residues)
binding to CD56+ (NK cell) population of PBMCs (in words) [1]: dose-dependent binding
binding to CD56-/CD3+ (T-cell) population of PBMCs (in words) [2]: binding to NK cells only

Molecule: CC(C)C[C@@H]1NC(=O)CNC(=O)[C@H](C(C)C)NC(=O)[C@@H](NC(=O)[C@H](C)N)CSCc2nc3nc(n2)CSC[C@H](NC(=O)[C@@H]2CCCN2C(=O)CNC(=O)[C@H](CC(C)C)NC(=O)[C@H](CCC(=O)O)NC(=O)[C@H](CCC(=O)O)NC1=O)C(=O)N[C@@H](CO)C(=O)N[C@@H](CC(=O)O)C(=O)N[C@@H](CC(C)C)C(=O)N[C@H](C(=O)N[C@@H](C)C(N)=O)CSC3 [BCY16493, A-(SEQ ID NO: 62)-A]
Kd [3]: 7330 nM
IC50 [4]: 4.79 µM

IC50 [5]: 3480 nM
Molecule: C#CCCC(=O)NCCCC[C@H](NC(=O)[C@H](C)NC(=O)[C@@H]1CSCCC(=O)N2CN3CN(C2)C(=O)CCSC[C@H](NC(=O)[C@H](C)N)C(=O)N2CCC[C@H]2C(=O)N2CCC[C@H]2C(=O)N[C@@H]([C@@H](C)O)C(=O)N[C@@H](C(C)C)C(=O)N[C@@H](Cc2ccc(O)cc2)C(=O)N[C@@H](CSCCC3=O)C(=O)N[C@@H](Cc2c[nH]cn2)C(=O)N2CCC[C@H]2C(=O)N[C@@H](CC(C)C)C(=O)N[C@@H](CC(=O)O)C(=O)N1)C(N)=O [BCY15685, A-(SEQ ID NO: 60)-A-[K(PYA)]]

Kd ([3]; SPR Method A and/or B, Table 6B, read-out: Kd (nM) (V Variant)): 3710 nM
IC50 ([4]; HTRF, competition with IgG-d2 on HEK293 cells expressing Terbium-labelled CD16a, 2 h at RT, read-out: IC50): 9.44 µM
Molecule: CC(C)C[C@@H]1NC(=O)[C@@H]2CCCN2C(=O)[C@H](Cc2c[nH]cn2)NC(=O)[C@@H]2CSCCC(=O)N3CN(CN(C3)C(=O)CCSC[C@H](NC(=O)[C@H](C)N)C(=O)N3CCC[C@H]3C(=O)N3CCC[C@H]3C(=O)N[C@@H]([C@@H](C)O)C(=O)N[C@@H](C(C)C)C(=O)N[C@@H](Cc3ccc(O)cc3)C(=O)N2)C(=O)CCSC[C@@H](C(=O)N[C@@H](C)C(N)=O)NC(=O)[C@H](CC(=O)O)NC1=O [BCY11808, A-(SEQ ID NO: 60)-A]

Molecule: C[C@H](N)C(=O)N[C@H]1CSCc2nc3nc(n2)CSC[C@H](NC(=O)[C@@H]2CCCN2C(=O)[C@H](CCC(=O)O)NC(=O)[C@H](CO)NC(=O)[C@@H]2C[C@@H](O)CN2C(=O)[C@H](Cc2c[nH]cn2)NC(=O)[C@H](Cc2c[nH]c4ccccc24)NC(=O)[C@H](CCCNC(=N)N)NC1=O)C(=O)NCC(=O)N[C@@H](C)C(=O)N[C@@H](Cc1c[nH]c2ccccc12)C(=O)N[C@H](C(=O)N[C@@H](C)C(N)=O)CSC3 [BCY20383, A-(SEQ ID NO: 228)-A]
IC50 [4]: 1.11 µM

Molecule: C#CCCC(=O)NCCCC[C@H](NC(=O)[C@H](C)NC(=O)[C@@H]1CSCc2nc3nc(n2)CSC[C@H](NC(=O)[C@@H]2CCCN2C(=O)CNC(=O)[C@H](CC(C)C)NC(=O)[C@H](CCC(=O)O)NC(=O)[C@H](CCC(=O)O)NC(=O)[C@H](CC(C)C)NC(=O)CNC(=O)[C@H](C(C)C)NC(=O)[C@@H](NC(=O)[C@H](C)N)CSC3)C(=O)N[C@@H](CO)C(=O)N[C@@H](CC(=O)O)C(=O)N[C@@H](CC(C)C)C(=O)N1)C(N)=O [BCY13886, A-(SEQ ID NO: 62)-A-[K(PYA)]]
Kd [6]: 2.2 µM
IC50 [5]: 3190 nM
